Reference: patent US10765114B2, “4-amino-6-(pyridyl and 2-substitutedphenyl)-picolinates and 6-amino-2-(pyridyl and 2-substitutedphenyl)-pyrimidine-4-carboxylates and their use as herbicides” (Dow AgroSciences LLC, priority 2013, dated 2020)

system: Key Broadleaf Weed and Crop Species; assay: Post-Emergent Test II (Table 5); assay type: in vivo; settings: Abutilon theophrasti, post-emergence, 336 h, ABUTH: velvetleaf (Abutilon theophrasti), application rate 70 (kg ai/ha; footnote: g ai/ha), read-out: Visual Growth Reduction (%) 14 Days After Application ABUTH
In short: (§1)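 Visual injury ratings (0 = no injury, 100 = complete kill) were taken 14 days after treatment relative to untreated plants. Seedlings at the first or second true leaf stage received an overhead spray at 187 L/ha, and solvent-blank sprayed plants served as controls.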

Structure (SMILES) | pest or weed control at 70 g/ha
COC(=O)c1nc(-c2ccc(Cl)c(F)c2CF)cc(N)c1Cl [Compound 78, methyl 4-amino-3-chloro-6-(4-chloro-3-fluoro-2-(fluoromethyl)phenyl)picolinate] | 95 to 100%

same assay, conditions: Abutilon theophrasti, post-emergence, 336 h, ABUTH: velvetleaf (Abutilon theophrasti), application rate 140 (kg ai/ha; footnote: g ai/ha), read-out: Visual Growth Reduction (%) 14 Days After Application ABUTH

Structure (SMILES) | pest or weed control at 140 g/ha
COC(=O)c1nc(-c2ccc(Cl)c(F)c2CF)cc(N)c1Cl [Compound 78, methyl 4-amino-3-chloro-6-(4-chloro-3-fluoro-2-(fluoromethyl)phenyl)picolinate] | 95 to 100%

same assay, conditions: Amaranthus retroflexus, post-emergence, 336 h, AMARE: redroot pigweed (Amaranthus retroflexus), application rate 70 (kg ai/ha; footnote: g ai/ha), read-out: Visual Growth Reduction (%) 14 Days After Application AMARE

Structure (SMILES) | pest or weed control at 70 g/ha
COC(=O)c1nc(-c2ccc(Cl)c(F)c2CF)cc(N)c1Cl [Compound 78, methyl 4-amino-3-chloro-6-(4-chloro-3-fluoro-2-(fluoromethyl)phenyl)picolinate] | 95 to 100%

same assay, conditions: Amaranthus retroflexus, post-emergence, 336 h, AMARE: redroot pigweed (Amaranthus retroflexus), application rate 140 (kg ai/ha; footnote: g ai/ha), read-out: Visual Growth Reduction (%) 14 Days After Application AMARE

Structure (SMILES) | pest or weed control at 140 g/ha
COC(=O)c1nc(-c2ccc(Cl)c(F)c2CF)cc(N)c1Cl [Compound 78, methyl 4-amino-3-chloro-6-(4-chloro-3-fluoro-2-(fluoromethyl)phenyl)picolinate] | 95 to 100%

same assay, conditions: Brassica napus, post-emergence, 336 h, BRSSS: oilseed rape, canola (Brassica napus), application rate 70 (kg ai/ha; footnote: g ai/ha), read-out: Visual Growth Reduction (%) 14 Days After Application BRSSS

Structure (SMILES) | pest or weed control at 70 g/ha
COC(=O)c1nc(-c2ccc(Cl)c(F)c2CF)cc(N)c1Cl [Compound 78, methyl 4-amino-3-chloro-6-(4-chloro-3-fluoro-2-(fluoromethyl)phenyl)picolinate] | 95 to 100%

same assay, conditions: Brassica napus, post-emergence, 336 h, BRSSS: oilseed rape, canola (Brassica napus), application rate 140 (kg ai/ha; footnote: g ai/ha), read-out: Visual Growth Reduction (%) 14 Days After Application BRSSS

Structure (SMILES) | pest or weed control at 140 g/ha
COC(=O)c1nc(-c2ccc(Cl)c(F)c2CF)cc(N)c1Cl [Compound 78, methyl 4-amino-3-chloro-6-(4-chloro-3-fluoro-2-(fluoromethyl)phenyl)picolinate] | 95 to 100%

same assay, conditions: Chenopodium album, post-emergence, 336 h, CHEAL: lambsquarters (Chenopodium album), application rate 70 (kg ai/ha; footnote: g ai/ha), read-out: Visual Growth Reduction (%) 14 Days After Application CHEAL

Structure (SMILES) | pest or weed control at 70 g/ha
COC(=O)c1nc(-c2ccc(Cl)c(F)c2CF)cc(N)c1Cl [Compound 78, methyl 4-amino-3-chloro-6-(4-chloro-3-fluoro-2-(fluoromethyl)phenyl)picolinate] | 95 to 100%

same assay, conditions: Chenopodium album, post-emergence, 336 h, CHEAL: lambsquarters (Chenopodium album), application rate 140 (kg ai/ha; footnote: g ai/ha), read-out: Visual Growth Reduction (%) 14 Days After Application CHEAL

Structure (SMILES) | pest or weed control at 140 g/ha
COC(=O)c1nc(-c2ccc(Cl)c(F)c2CF)cc(N)c1Cl [Compound 78, methyl 4-amino-3-chloro-6-(4-chloro-3-fluoro-2-(fluoromethyl)phenyl)picolinate] | 95 to 100%

same assay, conditions: Euphorbia heterophylla, post-emergence, 336 h, EPHHL: wild poinsettia (Euphorbia heterophylla), application rate 70 (kg ai/ha; footnote: g ai/ha), read-out: Visual Growth Reduction (%) 14 Days After Application EPHHL

Structure (SMILES) | pest or weed control at 70 g/ha
COC(=O)c1nc(-c2ccc(Cl)c(F)c2CF)cc(N)c1Cl [Compound 78, methyl 4-amino-3-chloro-6-(4-chloro-3-fluoro-2-(fluoromethyl)phenyl)picolinate] | 0 to 29%

same assay, conditions: Euphorbia heterophylla, post-emergence, 336 h, EPHHL: wild poinsettia (Euphorbia heterophylla), application rate 140 (kg ai/ha; footnote: g ai/ha), read-out: Visual Growth Reduction (%) 14 Days After Application EPHHL

Structure (SMILES) | pest or weed control at 140 g/ha
COC(=O)c1nc(-c2ccc(Cl)c(F)c2CF)cc(N)c1Cl [Compound 78, methyl 4-amino-3-chloro-6-(4-chloro-3-fluoro-2-(fluoromethyl)phenyl)picolinate] | 0 to 29%

same assay, conditions: Helianthus annuus, post-emergence, 336 h, HELAN: sunflower (Helianthus annuus), application rate 70 (kg ai/ha; footnote: g ai/ha), read-out: Visual Growth Reduction (%) 14 Days After Application HELAN

Structure (SMILES) | pest or weed control at 70 g/ha
COC(=O)c1nc(-c2ccc(Cl)c(F)c2CF)cc(N)c1Cl [Compound 78, methyl 4-amino-3-chloro-6-(4-chloro-3-fluoro-2-(fluoromethyl)phenyl)picolinate] | 85 to 94%

same assay, conditions: Helianthus annuus, post-emergence, 336 h, HELAN: sunflower (Helianthus annuus), application rate 140 (kg ai/ha; footnote: g ai/ha), read-out: Visual Growth Reduction (%) 14 Days After Application HELAN

Structure (SMILES) | pest or weed control at 140 g/ha
COC(=O)c1nc(-c2ccc(Cl)c(F)c2CF)cc(N)c1Cl [Compound 78, methyl 4-amino-3-chloro-6-(4-chloro-3-fluoro-2-(fluoromethyl)phenyl)picolinate] | 85 to 94%

same assay, conditions: Viola tricolor, post-emergence, 336 h, VIOTR: wild pansy (Viola tricolor), application rate 70 (kg ai/ha; footnote: g ai/ha), read-out: Visual Growth Reduction (%) 14 Days After Application VIOTR

Structure (SMILES) | pest or weed control at 70 g/ha
COC(=O)c1nc(-c2ccc(Cl)c(F)c2CF)cc(N)c1Cl [Compound 78, methyl 4-amino-3-chloro-6-(4-chloro-3-fluoro-2-(fluoromethyl)phenyl)picolinate] | 0 to 29%

same assay, conditions: Viola tricolor, post-emergence, 336 h, VIOTR: wild pansy (Viola tricolor), application rate 140 (kg ai/ha; footnote: g ai/ha), read-out: Visual Growth Reduction (%) 14 Days After Application VIOTR

Structure (SMILES) | pest or weed control at 140 g/ha
COC(=O)c1nc(-c2ccc(Cl)c(F)c2CF)cc(N)c1Cl [Compound 78, methyl 4-amino-3-chloro-6-(4-chloro-3-fluoro-2-(fluoromethyl)phenyl)picolinate] | 0 to 29%

system: Key Grass and Sedge Weeds as well as Grass Crops; assay: Post-Emergent Test II (Table 6); assay type: in vivo; settings: post-emergence, 336 h, CYPSS, 70 g ai/ha, 14 days after application, read-out: Visual Growth Reduction (%) 14 Days After Application CYPSS
In short: as §1

Structure (SMILES) | pest or weed control at 70 g/ha
COC(=O)c1nc(-c2ccc(Cl)c(F)c2CF)cc(N)c1Cl [Compound 78, methyl 4-amino-3-chloro-6-(4-chloro-3-fluoro-2-(fluoromethyl)phenyl)picolinate] | 45 to 59%

same assay, conditions: post-emergence, 336 h, CYPSS, 140 g ai/ha, 14 days after application, read-out: Visual Growth Reduction (%) 14 Days After Application CYPSS

Structure (SMILES) | pest or weed control at 140 g/ha
COC(=O)c1nc(-c2ccc(Cl)c(F)c2CF)cc(N)c1Cl [Compound 78, methyl 4-amino-3-chloro-6-(4-chloro-3-fluoro-2-(fluoromethyl)phenyl)picolinate] | 45 to 59%

same assay, conditions: post-emergence, 336 h, DIGSA: crabgrass (Digitaria sanguinalis), 70 g ai/ha, 14 days after application, read-out: Visual Growth Reduction (%) 14 Days After Application DIGSA

Structure (SMILES) | pest or weed control at 70 g/ha
COC(=O)c1nc(-c2ccc(Cl)c(F)c2CF)cc(N)c1Cl [Compound 78, methyl 4-amino-3-chloro-6-(4-chloro-3-fluoro-2-(fluoromethyl)phenyl)picolinate] | 0 to 29%

same assay, conditions: post-emergence, 336 h, DIGSA: crabgrass (Digitaria sanguinalis), 140 g ai/ha, 14 days after application, read-out: Visual Growth Reduction (%) 14 Days After Application DIGSA

Structure (SMILES) | pest or weed control at 140 g/ha
COC(=O)c1nc(-c2ccc(Cl)c(F)c2CF)cc(N)c1Cl [Compound 78, methyl 4-amino-3-chloro-6-(4-chloro-3-fluoro-2-(fluoromethyl)phenyl)picolinate] | 0 to 29%

same assay, conditions: post-emergence, 336 h, ECHSS, 70 g ai/ha, 14 days after application, read-out: Visual Growth Reduction (%) 14 Days After Application ECHSS

Structure (SMILES) | pest or weed control at 70 g/ha
COC(=O)c1nc(-c2ccc(Cl)c(F)c2CF)cc(N)c1Cl [Compound 78, methyl 4-amino-3-chloro-6-(4-chloro-3-fluoro-2-(fluoromethyl)phenyl)picolinate] | 0 to 29%

same assay, conditions: post-emergence, 336 h, ECHSS, 140 g ai/ha, 14 days after application, read-out: Visual Growth Reduction (%) 14 Days After Application ECHSS

Structure (SMILES) | pest or weed control at 140 g/ha
COC(=O)c1nc(-c2ccc(Cl)c(F)c2CF)cc(N)c1Cl [Compound 78, methyl 4-amino-3-chloro-6-(4-chloro-3-fluoro-2-(fluoromethyl)phenyl)picolinate] | 0 to 29%

same assay, conditions: post-emergence, 336 h, ORYSS (crop), 70 g ai/ha, 14 days after application, read-out: Visual Growth Reduction (%) 14 Days After Application ORYSS

Structure (SMILES) | pest or weed control at 70 g/ha
COC(=O)c1nc(-c2ccc(Cl)c(F)c2CF)cc(N)c1Cl [Compound 78, methyl 4-amino-3-chloro-6-(4-chloro-3-fluoro-2-(fluoromethyl)phenyl)picolinate] | 0 to 29%

same assay, conditions: post-emergence, 336 h, ORYSS (crop), 140 g ai/ha, 14 days after application, read-out: Visual Growth Reduction (%) 14 Days After Application ORYSS

Structure (SMILES) | pest or weed control at 140 g/ha
COC(=O)c1nc(-c2ccc(Cl)c(F)c2CF)cc(N)c1Cl [Compound 78, methyl 4-amino-3-chloro-6-(4-chloro-3-fluoro-2-(fluoromethyl)phenyl)picolinate] | 0 to 29%

same assay, conditions: post-emergence, 336 h, SETFA: giant foxtail (Setaria faberi), 70 g ai/ha, 14 days after application, read-out: Visual Growth Reduction (%) 14 Days After Application SETFA

Structure (SMILES) | pest or weed control at 70 g/ha
COC(=O)c1nc(-c2ccc(Cl)c(F)c2CF)cc(N)c1Cl [Compound 78, methyl 4-amino-3-chloro-6-(4-chloro-3-fluoro-2-(fluoromethyl)phenyl)picolinate] | 0 to 29%

same assay, conditions: post-emergence, 336 h, SETFA: giant foxtail (Setaria faberi), 140 g ai/ha, 14 days after application, read-out: Visual Growth Reduction (%) 14 Days After Application SETFA

Structure (SMILES) | pest or weed control at 140 g/ha
COC(=O)c1nc(-c2ccc(Cl)c(F)c2CF)cc(N)c1Cl [Compound 78, methyl 4-amino-3-chloro-6-(4-chloro-3-fluoro-2-(fluoromethyl)phenyl)picolinate] | 0 to 29%

same assay, conditions: post-emergence, 336 h, SORVU: grain sorghum (Sorghum vulgare), 70 g ai/ha, 14 days after application, read-out: Visual Growth Reduction (%) 14 Days After Application SORVU

Structure (SMILES) | pest or weed control at 70 g/ha
COC(=O)c1nc(-c2ccc(Cl)c(F)c2CF)cc(N)c1Cl [Compound 78, methyl 4-amino-3-chloro-6-(4-chloro-3-fluoro-2-(fluoromethyl)phenyl)picolinate] | 0 to 29%

same assay, conditions: post-emergence, 336 h, SORVU: grain sorghum (Sorghum vulgare), 140 g ai/ha, 14 days after application, read-out: Visual Growth Reduction (%) 14 Days After Application SORVU

Structure (SMILES) | pest or weed control at 140 g/ha
COC(=O)c1nc(-c2ccc(Cl)c(F)c2CF)cc(N)c1Cl [Compound 78, methyl 4-amino-3-chloro-6-(4-chloro-3-fluoro-2-(fluoromethyl)phenyl)picolinate] | 0 to 29%

same assay, conditions: post-emergence, 336 h, TRZSS (crop), 70 g ai/ha, 14 days after application, read-out: Visual Growth Reduction (%) 14 Days After Application TRZSS

Structure (SMILES) | pest or weed control at 70 g/ha
COC(=O)c1nc(-c2ccc(Cl)c(F)c2CF)cc(N)c1Cl [Compound 78, methyl 4-amino-3-chloro-6-(4-chloro-3-fluoro-2-(fluoromethyl)phenyl)picolinate] | 0 to 29%

same assay, conditions: post-emergence, 336 h, TRZSS (crop), 140 g ai/ha, 14 days after application, read-out: Visual Growth Reduction (%) 14 Days After Application TRZSS

Structure (SMILES) | pest or weed control at 140 g/ha
COC(=O)c1nc(-c2ccc(Cl)c(F)c2CF)cc(N)c1Cl [Compound 78, methyl 4-amino-3-chloro-6-(4-chloro-3-fluoro-2-(fluoromethyl)phenyl)picolinate] | 0 to 29%

same assay, conditions: post-emergence, 336 h, ZEAMX: maize, corn (Zea mays), 70 g ai/ha, 14 days after application, read-out: Visual Growth Reduction (%) 14 Days After Application ZEAMX

Structure (SMILES) | pest or weed control at 70 g/ha
COC(=O)c1nc(-c2ccc(Cl)c(F)c2CF)cc(N)c1Cl [Compound 78, methyl 4-amino-3-chloro-6-(4-chloro-3-fluoro-2-(fluoromethyl)phenyl)picolinate] | 0 to 29%

same assay, conditions: post-emergence, 336 h, ZEAMX: maize, corn (Zea mays), 140 g ai/ha, 14 days after application, read-out: Visual Growth Reduction (%) 14 Days After Application ZEAMX

Structure (SMILES) | pest or weed control at 140 g/ha
COC(=O)c1nc(-c2ccc(Cl)c(F)c2CF)cc(N)c1Cl [Compound 78, methyl 4-amino-3-chloro-6-(4-chloro-3-fluoro-2-(fluoromethyl)phenyl)picolinate] | 0 to 29%
